Results on 1 substance are retold here after patent US6011019A, “Vasoactive effects and free radical generation by β-amyloid peptides” (University of South Florida, priority 1996, dated 2000).

A value given as a limit tells only on which side of the number the result lay.

Assay [1] has as its system blood vessel (rat aorta). Description: Acetylcholine induced relaxation of preconstricted rat aorta after β-amyloid. As to conditions: for acetylcholine induced relaxation after β-amyloid pretreatment: 10^-6 M β-amyloid fifteen minutes, preconstricted with 10^-7 M phenylephrine. As to the method: (§1) The blood vessel preparations were mounted on stainless steel hooks attached to a force-displacement transducer and equilibrated under the optimum tension of 1.3 g for a period of sixty minutes in a tissue bath (10 ml) containing oxygenated (5% CO2 in O2) Kreb's buffer at 37° C. The buffer was changed every fifteen minutes. After equilibration for sixty minutes the viability of the blood vessel with intact endothelium was established by constricting the blood vessel using phenylephrine ([…]). This dose of phenylephrine elicited 80% of the maximum response. […] The vessel preparations were washed for fifteen minutes before various manipulations as described below.
(1=10^-9 M, 2=10^-8 M, 3=5×10^-8 M, 4=10^-7 M, 5=5×10^-7 M, 6=10^-6 M, 7=10^-5 M, 8=5×10^-5 M, the curve denoted by (C) is the control curve and +Aβ indicates the curve for β-amyloid treated aorta.)
FIG. 11 illustrates the relaxation by acetylcholine under control conditions and following fifteen minute incubation with 10^-6 M β-amyloid protein. The acetylcholine relaxation curve is shifted to the right but maintains its sigmoidal form indicating attenuation of acetylcholine induced relaxation. Values represent the mean±SEM of 5 or more experiments. […] At higher doses of acetylcholine greater percentage changes in relaxation occur preserving the sigmoidal response.

In assay [2] the test system is endothelial cells in aortic rings. Kind of assay: Electron microscopy of endothelial cell layer in aortic rings. Also on record: species or system rat. As to the method:
As shown in FIGS. 14A-F, […], or in presence of β-amyloid (10^-6 M), or SOD (150 units/ml) and β-amyloid.The tissue samples were kept in glutaraldehyde solution at 4° C. until processed and then rinsed with cacodylate buffer. The tissues were postfixed with 1% buffered osmium tetroxide, dehydrated with graded ethanol solutions, and embedded in a mixture of eponaraldite. Ultrathin sections were stained with uranyl acetate and lead citrate and viewed on model 7000 Hitachi transmission electron microscope. The inset bar indicates one micron. The experiment was repeated three or more times with blood vessels from different animals.

Assay [3] relates to endothelial cell layer in rat coronary artery. Kind of assay: Electron microscopy of endothelial cell layer in rat coronary artery. The settings on record: β-amyloid thirty minutes at 10^-6 M. The procedure: The physiological effects of β-amyloid treatment on the coronary artery with and without pretreatment with SOD is shown in FIG. 7A-C. FIG. 7A-C are electron micrographs showing the endothelial cell layer in rat coronary artery. […] The tissue samples were kept in glutaraldehyde solution at 4° C. until processed and then rinsed with cacodylate buffer. The tissues were post-fixed with 1% buffered osmium tetroxide, dehydrated with grated ethanol solutions, and embedded in a mixture of eponaraldite. Ultra thin sections were stained with uranyl acetate and lead citrate and viewed on a model 7,000 Hitachi transmission electron microscope. The inset bar indicates two microns. The experiment was repeated three or more times with blood vessels from different animals. FIG. 7A is a control coronary artery and depicts normal endothelial cells closely adhering to the intimal elastic lamina lining of the lumen. […] FIG. 7C depicts a rat coronary artery pretreated with SOD (150 units/ml, for thirty seconds prior to the addition of β-amyloid).

In assay [4] the test system is porcine coronary arteries. Description: Porcine coronary artery vascular tone and bradykinin relaxation. From the text:
Freshly isolated porcine coronary arteries were studied by the methods described above for rat aorta.
The effect of pre-treatment with a single dose of amyloid protein on relaxation induced by increasing concentrations of the vasodilator bradykinin is shown in FIG. 23. […] was preconstricted with a single dose of the vasoconstrictor U46619.

Assay [5] has as its system blood vessel (rat aorta). Description: Vascular response of blood vessel rings in tissue bath (basal tension, β-amyloid induced vasoactivity). As to the method:
Freshly excised rat and porcine blood vessels were placed in Kreb's bicarbonate buffer equilibrated with 5% CO2 in O2. The buffer composition consisted of 118.2 mM NaCl, 4.7 mM KCl, 1.2 mM MgSO4, 2.5 mM CaCl2, 1.2 mM NaH2 PO4, 23 mM NaHCO3 and 11.2 mM glucose. After cleaning the vessels free of fat and other adhering tissues, the vessels were cut into ring segments of approximately 3 mm in length. Care was taken not to damage the intimal surface.
The endothelium was removed from some preparations by rubbing the inside of the lumen with a metal spatula for six to ten seconds and subsequent rinsing with buffer. The removal of endothelium was confirmed by testing for relaxation to acetylcholine [Furchgott and Zawadzki, 1980].
as §1
Referring to FIG. 10, the arrow indicates the addition of 10^-6 M β-amyloid. The control tissue received no β-amyloid. SOD (150 units/ml) was added thirty seconds prior to the addition of β-amyloid. The maximum contraction induced by β-amyloid was 1.14±0.13 (g) and in presence of SOD the contraction was reduced to 0.04±0.02 (g). Values represent the mean±SEM of five separate experiments.

Assay [6] concerns bovine mid cerebral arteries. Description: Bovine mid cerebral artery contraction (U46619) and bradykinin vasodilation. As to conditions: 1 μM β-amyloid for 15 minutes. As to the method:
Freshly dissected bovine mid cerebral arteries were cut into 3 mm rings and studied in tissue chamber as described earlier. Contraction of the blood vessel to the vasoconstrictor U46619 was studied before and after treatment with 1 μM β-amyloid for 15 minutes. […] (See FIG. 24).

The subject of a further assay is rat coronary arteries. Kind of assay: Rat coronary artery constriction and relaxation (U46619, acetylcholine). As to conditions: single dose 10^-6 M; preconstricted with 10^-7 M U46619. As to the method: The effects of β-amyloid peptide were examined on samples of rat coronary arteries prepared as described above. Referring specifically to FIG. 1, rat coronary arteries were treated with β-amyloid peptide (Aβ40) causing constriction of the coronary arteries.
FIG. 3 illustrates the effect of various amyloid fragments on the constriction of rat coronary arteries. Following control constriction with 10^-7 M U46619, the tissue samples were rinsed, equilibrated with buffer, and treated with 10^-6 M Aβ peptides for fifteen minutes. Following treatment with the Aβ peptides, the blood vessels were rinsed and again exposed to U46619. The values are expressed as percent of control constriction produced by U46619 alone.
The effect of pretreatment of coronary arteries with a single dose (10^-6 M) of A40 on acetylcholine induced relaxation is shown in FIG. 20. The blood vessel was preconstricted with 10^-7 M U46619 and relaxed with increasing doses of acetylcholine (10^-9 M to 10^-5 M).

Regarding β-amyloid, the “acetylcholine induced relaxation after β-amyloid pretreatment” value in the assay on blood vessel (rat aorta) [1] was “significantly reduced relaxation”. In the assay on blood vessel (rat aorta) [1] (listed as β-amyloid protein), the “acetylcholine induced relaxation after β-amyloid pretreatment” value is “significantly lowered”. Also, the “restoration of acetylcholine induced relaxation by washing after β-amyloid” value in the assay on blood vessel (rat aorta) [1] (tissue washed following β-amyloid exposure) was “did not restore the acetylcholine-induced relaxation to control levels”. The “β-amyloid concentration required to induce the morphological changes” value in assay [2] (incubation periods of fifteen minutes) is recorded as > 5×10^-7 M. The “endothelial cell morphology after incubation” value in assay [2] (β-amyloid 10^-6 M, 37° C., thirty minutes) was “induced significant damage to the endothelial cells”. Moreover, the “endothelial layer morphology in rat coronary artery” value in assay [3] was “Derangement of the endothelial layer, condensed nucleus, separation from the intimal elastic lamina, and areas of denuded internal elastic lamina”. The “contraction of porcine coronary artery” value in assay [4] (increasing concentrations of amyloid peptide) is given as “dose dependent contraction”. In addition, the “vasodilation caused by bradykinin after amyloid peptide” value in assay [4] (single dose of amyloid, increasing bradykinin) is listed as “reduced the vasodilation caused by the bradykinin”. In addition, in assay [4] (single dose of amyloid, preconstricted with U46619), the “vasoconstriction by U46619 after amyloid peptide” value is reported as “significant increase in vasoconstriction”. The “maximum contraction induced by β-amyloid” value in the assay on blood vessel (rat aorta) [5] (10^-6 M β-amyloid, mean±SEM of five experiments) was found to be 1.14 ± 0.13 g. Also, in the assay with blood vessel (rat aorta) [5] (after β-amyloid addition), the “duration of contraction/relaxation activity” value is on record as “fifteen to twenty minutes”, the “initial detectable change: minor relaxation” value is below 0.1 g and the onset of vasoactivity result was “within thirty seconds”. Further, the “constriction of the blood vessel” value in the assay on blood vessel (rat aorta) [5] (increasing concentration of β-amyloid, basal tension, intact endothelium) is listed as “constricted the blood vessel in a concentration-dependent manner”. Also, in the assay with blood vessel (rat aorta) [5] (vessels with and without endothelium), the “endothelium dependence of the constricting effect” value is on record as “only occurred in the presence of endothelium”. Also, in assay [6], the “contraction induced by U46619 after β-amyloid” value is given as “significantly increased” and the “vasodilatory effect of bradykinin after β-amyloid” value was “markedly reduced”. Also, the “acetylcholine induced vasodilation after pretreatment” value in the assay on rat coronary arteries was “significantly reduced the vasodilation induced by acetylcholine”.
